PMC9330593, “The Structural Flexibility of PR-10 Food Allergens” (International Journal of Molecular Sciences, 2022)

Target: T1, Ara h 8.0101 (Arachis hypogaea, UniProt Q6VT83)
T1 construct: recombinant, 15N-labelled; N-terminal glycine (initiator Met apparently absent)
T1 sequence (Q6VT83 2-157): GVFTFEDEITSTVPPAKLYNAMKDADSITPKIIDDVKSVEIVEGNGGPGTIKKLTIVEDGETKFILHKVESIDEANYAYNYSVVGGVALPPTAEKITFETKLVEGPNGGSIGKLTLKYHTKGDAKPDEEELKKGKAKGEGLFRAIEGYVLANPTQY
Test: 1H-15N HSQC NMR titration
Type: binding

**Q.** `Oc1cc(O)c2c(c1)O[C@H](c1ccc(O)c(O)c1)[C@H](O)C2` [(-)-epicatechin] was tested. Which Kd did it give?
**A.** 760 ± 370 µM
